Laboratory results: US20130109682A1, “CYCLIC ETHER COMPOUNDS USEFUL AS KINASE INHIBITORS” (NOVARTIS AG, priority 2010, published 2013)

Experiments:
PIM1 = PIM1 (Homo sapiens, UniProt P11309); experiment: KinaseGlo Pim1 ATP depletion assay; assay type: biochemical
Description: KinaseGlo Pim1 ATP Depletion Assay
The activity of PIM1 is measured using a luciferase-luciferin based ATP detection reagent to quantify ATP depletion resulting from kinase-catalyzed phosphoryl transfer to a peptide substrate. Compounds to be tested are dissolved in 100% DMSO and directly distributed into white 384-well plates at 0.5 μA per well. To start the reaction, 10 μA of 5 nM Pim1 kinase and 80 μM BAD peptide (RSRHSSYPAGT-OH) in assay buffer (50 mM HEPES pH 7.5, 5 mM MgCl2, 1 mM DTT, 0.05% BSA) is added into each well. After 15 minutes, 10 μl of 40 μM ATP in assay buffer is added. Final assay concentrations are 2.5 nM PIM1, 20 μM ATP, 40 μM BAD peptide and 2.5% DMSO. The reaction is performed until approximately 50% of the ATP is depleted, then stopped with the addition of 20 μA KinaseGlo Plus (Promega Corporation) solution. The stopped reaction is incubated for 10 minutes and the remaining ATP detected via luminescence on the Victor2 (Perkin Elmer). […] IC50, the half maximal inhibitory concentration, represents the concentration of a test compound that is required for 50% inhibition of its target in vitro.

PIM3 = PIM3 (Homo sapiens, UniProt Q86V86); experiment: KinaseGlo Pim3 ATP depletion assay; assay type: biochemical
Description: KinaseGlo Pim3 ATP Depletion Assay
The activity of PIM3 is measured using a luciferase-luciferin based ATP detection reagent to quantify ATP depletion resulting from kinase-catalyzed phosphoryl transfer to a peptide substrate. Compounds to be tested are dissolved in 100% DMSO and directly distributed into white 384-well plates at 0.5 μl per well. To start the reaction, 10 μl of 10 nM Pim3 kinase and 200 μM BAD peptide (RSRHSSYPAGT-OH) in assay buffer (50 mM HEPES pH 7.5, 5 mM MgCl2, 1 mM DTT, 0.05% BSA) is added into each well. After 15 minutes, 10 μl of 80 μM ATP in assay buffer is added. Final assay concentrations are 5 nM […], 40 μM ATP, 100 μM BAD peptide and 2.5% DMSO. The reaction is performed until approximately 50% of the ATP is depleted, then stopped by the addition of 20 μl KinaseGlo Plus (Promega Corporation) solution. The stopped reaction is incubated for 10 minutes and the remaining ATP detected via luminescence on the Victor2 (Perkin Elmer).

GSK3β = GSK3β (Homo sapiens, UniProt P49841); experiment: GSK3β ATP depletion assay; assay type: biochemical; conditions: read-out: GSK3b IC50
Description: GSK3β ATP Depletion Assay
The activity of GSK3β is measured using a luciferase-luciferin based ATP detection reagent to quantify ATP depletion resulting from kinase-catalyzed phosphoryl transfer to a peptide substrate. Compounds to be tested are dissolved in 100% DMSO and directly distributed into white 384-well plates at 0.5 μl per well. To start the reaction, 10 μl of 10 nM GSK3B kinase and 20 μM biotinylated CREB peptide ([…](pS)YR-NH2) in assay buffer (50 mM TRIS pH 7.5, 15 mM MgCl2, 1 mM DTT, 0.1% BSA) is added into each well. After 15 minutes, 10 μl of 2 μM ATP in assay buffer is added. Final assay concentrations are 5 nM GSK3B, […], 10 μM b-CREB peptide and 2.5% DMSO. The reaction is performed until approximately 50% of the ATP is depleted, then stopped with the addition of 20 μl KinaseGlo (Promega Corporation) solution. The stopped reaction is incubated for 10 minutes and the remaining ATP is detected via luminescence on the Victor2 (Perkin Elmer).

[1] = system: KMS11 (human myeloma cell line); experiment: Cell proliferation assay (CellTiter-Glo), KMS11; assay type: cell-based; conditions: Homo sapiens, KMS-11; KMS11-Luc cells
Description: KMS11 (human myeloma cell line), were cultured in IMDM supplemented with 10% FBS, sodium pyruvate and antibiotics. Cells were plated in the same medium at a density of 2000 cells per well into 96 well tissue culture plates, with outside wells vacant, on the day of assay. MMl.s (human myeloma cell line), were cultured in RPMI1640 supplemented with 10% FBS, sodium pyruvate and antibiotics. Cells were plated in the same medium at a density of 5000 cells per well into 96 well tissue culture plates, with outside wells vacant, on the day of assay.
Test compounds supplied in DMSO were diluted into DMSO at 500 times the desired final concentrations before dilution into culture media to 2 times final concentrations. Equal volumes of 2× compounds were added to the cells in 96 well plates and incubated at 37° C. for 3 days.
After 3 days plates were equilibrated to room temperature and equal volume of CellTiter-Glow Reagent (Promega) was added to the culture wells. The plates were agitated briefly and luminescent signal was measured with luminometer.
Using the procedures of Cell Proliferation Assay, the EC50 concentration of indicated compounds of the examples in were determined in KMS11 cells as shown in Table 4.

PIM2 = PIM2 (Homo sapiens, UniProt Q9P1W9); experiment: KinaseGlo Pim2 ATP depletion assay; assay type: biochemical
Description: KinaseGlo Pim2 ATP Depletion Assay
The activity of PIM2 is measured using a luciferase-luciferin based ATP detection reagent to quantify ATP depletion resulting from kinase-catalyzed phosphoryl transfer to a peptide substrate. Compounds to be tested are dissolved in 100% DMSO and directly distributed into white 384-well plates at 0.5 piper well. To start the reaction, 10 μl of 10 nM Pim2 kinase and 20 μM BAD peptide (RSRHSSYPAGT-OH) in assay buffer (50 mM HEPES pH 7.5, 5 mM MgCl2, 1 mM DTT, 0.05% BSA) is added into each well. After 15 minutes, 10 μl of 8 μM ATP in assay buffer is added. Final assay concentrations are 5 nM PIM2, 4 μM ATP, 10 μM BAD peptide and 2.5% DMSO. The reaction is performed until approximately 50% of the ATP is depleted, then stopped with the addition of 20 μl KinaseGlo Plus (Promega Corporation) solution. The stopped reaction is incubated for 10 minutes and the remaining ATP detected via luminescence on the Victor2 (Perkin Elmer).

GSK3β, sequence (P49841 whole entry, species assumed): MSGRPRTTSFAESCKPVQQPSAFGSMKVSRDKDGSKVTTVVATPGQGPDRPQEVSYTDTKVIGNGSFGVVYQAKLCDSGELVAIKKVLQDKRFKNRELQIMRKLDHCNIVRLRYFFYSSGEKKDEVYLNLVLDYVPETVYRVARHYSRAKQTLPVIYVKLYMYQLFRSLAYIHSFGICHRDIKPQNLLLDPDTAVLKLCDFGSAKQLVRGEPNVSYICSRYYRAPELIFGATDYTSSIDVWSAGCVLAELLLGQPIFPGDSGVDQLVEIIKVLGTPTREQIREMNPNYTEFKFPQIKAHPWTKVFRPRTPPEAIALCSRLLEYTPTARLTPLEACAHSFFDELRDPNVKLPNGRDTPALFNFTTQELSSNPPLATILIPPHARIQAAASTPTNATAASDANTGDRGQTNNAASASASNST
PIM2, sequence (Q9P1W9 whole entry): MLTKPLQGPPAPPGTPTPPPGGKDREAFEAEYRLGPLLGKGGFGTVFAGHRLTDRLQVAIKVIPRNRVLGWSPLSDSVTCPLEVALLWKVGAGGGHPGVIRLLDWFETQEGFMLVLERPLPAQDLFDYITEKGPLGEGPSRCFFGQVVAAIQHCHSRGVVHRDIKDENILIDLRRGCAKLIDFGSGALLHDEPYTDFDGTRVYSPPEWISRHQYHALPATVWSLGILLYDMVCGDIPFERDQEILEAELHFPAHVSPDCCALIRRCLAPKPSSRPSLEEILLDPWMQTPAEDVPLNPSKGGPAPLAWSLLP
PIM1, sequence (P11309 whole entry): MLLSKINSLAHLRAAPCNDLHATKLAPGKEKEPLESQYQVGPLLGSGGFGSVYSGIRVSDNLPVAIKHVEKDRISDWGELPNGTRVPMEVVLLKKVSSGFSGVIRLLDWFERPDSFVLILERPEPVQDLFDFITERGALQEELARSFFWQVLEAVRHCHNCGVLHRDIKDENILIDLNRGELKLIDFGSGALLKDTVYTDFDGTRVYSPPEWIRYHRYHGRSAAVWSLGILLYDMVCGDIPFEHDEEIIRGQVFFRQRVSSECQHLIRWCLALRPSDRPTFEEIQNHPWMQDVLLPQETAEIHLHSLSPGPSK

SMILES | IC50 (PIM1) [nM] | IC50 (PIM3) [nM] | IC50 (GSK3β) [nM] | EC50 [1] [nM] | IC50 (PIM2) [nM]
CC1C(c2ccncc2NC(=O)c2ccc(F)c(-c3c(F)cccc3F)n2)OC(C)[C@@H](O)C1O (stereo in doubt) [Example 67, 6-(2,6-difluorophenyl)-N-(4-((2R,3S,4R,5S,6R)-4,5-dihydroxy-3,6-dimethyltetrahydro-2H-pyran-2-yl)pyridin-3-yl)-5-fluoropicolinamide] | 4 | 22 | 984 | > 10000 | 300
C[C@H]1O[C@@H](c2ccncc2NC(=O)c2csc(-c3c(F)cccc3F)n2)[C@H](F)[C@@H](O)[C@]1(C)O (stereo in doubt) [Example 68, 2-(2,6-difluorophenyl)-N-(4-((2S,3R,4S,5S,6R)-3-fluoro-4,5-dihydroxy-5,6-dimethyltetrahydro-2H-pyran-2-yl)pyridin-3-yl)thiazole-4-carboxamide] | 6 | 89 | 1070 | 6000 | 3390
C[C@H]1O[C@@H](c2ccncc2NC(=O)c2ccc(F)c(-c3c(F)cccc3F)n2)[C@H](F)[C@@H](O)[C@]1(C)O (stereo in doubt) [Example 69, 6-(2,6-difluorophenyl)-5-fluoro-N-(4-((2S,3R,4S,5S,6R)-3-fluoro-4,5-dihydroxy-5,6-dimethyltetrahydro-2H-pyran-2-yl)pyridin-3-yl)picolinamide] | 4 | 53 | 1800 | 4000 | 497
CC[C@]1(O)[C@H](O)C[C@H](c2ccncc2NC(=O)c2ccc(F)c(-c3c(F)cccc3F)n2)O[C@@H]1C (stereo in doubt) [Example 77, 6-(2,6-difluorophenyl)-N-(4-((2R,4R,5S,6R)-5-ethyl-4,5-dihydroxy-6-methyltetrahydro-2H-pyran-2-yl)pyridin-3-yl)-5-fluoropicolinamide] | 50 | 236 | 4890 | 6400 | 756
C[C@H]1O[C@@H](c2ccncc2NC(=O)c2ccc(F)c(-c3c(F)cccc3F)n2)[C@H](O)[C@@H](O)[C@]1(C)O (stereo in doubt) [Example 81, 6-(2,6-difluorophenyl)-5-fluoro-N-(4-((2S,3R,4R,5S,6R)-3,4,5-trihydroxy-5,6-dimethyltetrahydro-2H-pyran-2-yl)pyridin-3-yl)picolinamide] | 31 | 44 | 854 | > 10000 | 720

Now those with a lower IC50 (PIM1), led by results:

IC50 (PIM1) [nM] | IC50 (PIM3) [nM] | IC50 (GSK3β) [nM] | EC50 [1] [nM] | IC50 (PIM2) [nM] | SMILES
2 | 7 | 1170 | > 10000 | 36 | C[C@@H]1O[C@H](c2ccncc2NC(=O)c2ccc(F)c(-c3c(F)cccc3F)n2)[C@@H](O)[C@H](O)[C@@]1(C)O (stereo in doubt) [Example 82, 6-(2,6-difluorophenyl)-5-fluoro-N-(4-((2R,3S,4S,5R,6S)-3,4,5-trihydroxy-5,6-dimethyltetrahydro-2H-pyran-2-yl)pyridin-3-yl)picolinamide]
1 | 8 | 689 | 2200 | 99 | CC1C(c2ccncc2NC(=O)c2ccc(F)c(-c3c(F)cccc3F)n2)OC(C)[C@H](O)C1O (stereo in doubt) [Example 66, 6-(2,6-difluorophenyl)-N-(4-((2S,3R,4S,5R,6S)-4,5-dihydroxy-3,6-dimethyltetrahydro-2H-pyran-2-yl)pyridin-3-yl)-5-fluoropicolinamide]
1 | 19 | 331 | > 10000 | 323 | C[C@@H]1O[C@H](c2ccncc2NC(=O)c2csc(-c3c(F)cccc3F)n2)[C@@H](F)[C@H](O)[C@@]1(C)O (stereo in doubt) [Example 70, 2-(2,6-difluorophenyl)-N-(4-((2R,3S,4R,5R,6S)-3-fluoro-4,5-dihydroxy-5,6-dimethyltetrahydro-2H-pyran-2-yl)pyridin-3-yl)thiazole-4-carboxamide]
